Measurements reported in patent US7087433B2, “7SK RNA regulated transcription” (The Regents of the University of California, priority 2002, dated 2006).
Starred links: 1 amine or outer side, 2 acyl side, 3 side chain; linkers in the order of their positions; H or OH if unused. Positions of bridges follow the written chain, without caps; N, C: chain ends. Non-standard residues stand in square brackets, D forms with d. Residues, ends and D or L forms follow the SMILES beside them. Chains are numbered I, II in the order given. Actinocin(9to1) = Cc1c2oc3c(C)ccc(C(=O)[*:1])c3nc-2c(C(=O)[*:2])c(N)c1=O; NMeV = CN[C@H](C(=O)O)C(C)C; Sar = CNCC(=O)O

Tests used:
7SK/P-TEFb interaction [1] = assay: 7SK/P-TEFb interaction in nuclear extracts of treated F1C2 cells; assay type: cell-based, human; settings: nuclear extract
Text: Certain agents that elicit SOS-like stress responses in mammalian cells can markedly enhance HIV-1 transcription in a manner analogous to prophage induction in Escherichia coli (6–8,20,21). […] In light of these observations, we investigated the effect of ultraviolet irradiation and actinomycin D on the 7SK/P-TEFb interaction in nuclear extracts of the treated F1C2 cells. […] Neither the level of total 7SK in the nuclear extract nor the CDK9/cyclin T1 interaction was affected. […] As for ultraviolet irradiation, 7SK was dissociated from P-TEFb as early as 15–30 min after treatment, long before any signs of apoptosis appeared. Thus, stress signals such as ultraviolet irradiation and actinomycin D can cause fast and efficient 7SK dissociation from P-TEFb, which explains their positive effects on HIV-1 transcription and Pol II phosphorylation.

HIV-1 transcription = settings: HeLa cells, low levels of drug; cited from earlier work
7SK/P-TEFb interaction [2] = molecular target: T1, 7SK/P-TEFb interaction (Homo sapiens, UniProt P50750); assay: Direct incubation with nuclear extract, 7SK/P-TEFb interaction; assay type: binding
T1 construct: expressed in transfected cells; host or cells: F1C2 cell line (HeLa stably transfected with pBabe-puro-CDK9-Flag)
T1 sequence (P50750 whole entry): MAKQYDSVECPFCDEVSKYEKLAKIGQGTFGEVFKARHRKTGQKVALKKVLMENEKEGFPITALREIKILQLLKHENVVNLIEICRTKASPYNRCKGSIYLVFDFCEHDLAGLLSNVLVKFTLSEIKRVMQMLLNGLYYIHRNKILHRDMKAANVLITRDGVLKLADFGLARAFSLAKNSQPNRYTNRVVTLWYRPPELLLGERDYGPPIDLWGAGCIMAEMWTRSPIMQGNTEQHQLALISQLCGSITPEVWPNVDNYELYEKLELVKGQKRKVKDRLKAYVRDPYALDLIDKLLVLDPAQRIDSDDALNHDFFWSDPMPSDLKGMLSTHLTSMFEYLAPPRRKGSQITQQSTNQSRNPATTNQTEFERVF
T1 sequence (O60563 whole entry partner): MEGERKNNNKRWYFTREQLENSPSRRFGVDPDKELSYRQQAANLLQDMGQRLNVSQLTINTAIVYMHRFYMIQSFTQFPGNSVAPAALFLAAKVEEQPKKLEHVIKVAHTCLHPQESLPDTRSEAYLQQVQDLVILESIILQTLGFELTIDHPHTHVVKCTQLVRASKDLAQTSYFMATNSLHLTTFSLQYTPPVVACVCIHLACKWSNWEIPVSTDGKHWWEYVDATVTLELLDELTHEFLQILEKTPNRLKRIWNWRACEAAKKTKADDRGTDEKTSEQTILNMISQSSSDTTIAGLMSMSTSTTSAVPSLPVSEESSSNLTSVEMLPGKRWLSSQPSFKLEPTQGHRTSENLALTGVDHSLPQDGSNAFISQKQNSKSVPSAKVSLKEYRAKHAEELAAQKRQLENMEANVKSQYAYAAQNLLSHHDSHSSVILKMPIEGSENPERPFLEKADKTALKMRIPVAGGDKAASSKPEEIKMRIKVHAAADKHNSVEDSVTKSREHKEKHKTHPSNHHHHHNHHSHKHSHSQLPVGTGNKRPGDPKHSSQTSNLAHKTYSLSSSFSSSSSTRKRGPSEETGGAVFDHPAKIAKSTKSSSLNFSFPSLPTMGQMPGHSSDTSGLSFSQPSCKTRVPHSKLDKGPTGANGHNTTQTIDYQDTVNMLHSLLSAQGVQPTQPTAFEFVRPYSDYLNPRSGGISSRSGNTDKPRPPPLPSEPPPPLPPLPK

CDK9/cyclin T1 kinase = assay: CDK9-Flag kinase reaction with purified RNA Pol II as substrate; assay type: biochemical, human; settings: affinity-purified CDK9-Flag; degradation of associated 7SK
Description: 7SK could inhibit the activity of P-TEFb by suppressing the kinase activity of CDK9/cyclin T1. Affinity-purified CDK9-Flag and its associated factors were divided into two halves, incubated respectively with RNase A and DNase I, and tested in kinase reactions containing purified RNA Pol II as a substrate (9). […] This increase was significant given that only about 50% of the purified CDK9-Flag/cyclin T1 was associated with 7SK. […] To analyse more specifically the activity of P-TEFb bound to 7SK, this complex was affinity purified from HeLa nuclear extract using the 7SK antisense 2′-OMe RNA beads. Eluted with a displacement deoxyoligonucleotide (15), the P-TEFb bound to 7SK was divided into three equal portions, incubated respectively with RNase A, DNase I or buffer alone, and analysed in kinase reactions.

For Cc1c2oc3c(C)ccc(C(=O)N[C@@H]4C(=O)N[C@H](C(C)C)C(=O)N5CCC[C@H]5C(=O)N(C)CC(=O)N(C)[C@@H](C(C)C)C(=O)O[C@@H]4C)c3nc-2c(C(=O)N[C@@H]2C(=O)N[C@H](C(C)C)C(=O)N3CCC[C@H]3C(=O)N(C)CC(=O)N(C)[C@@H](C(C)C)C(=O)O[C@@H]2C)c(N)c1=O [actinomycin D] (I: T[dV]P[Sar][NMeV] / II: T[dV]P[Sar][NMeV]; ester I:1-I:C, II:1-II:C; linker I:N-II:N via Actinocin(9to1)), the “amount of 7SK associated with affinity-purified CDK9-Flag” value (7SK/P-TEFb interaction [1]) is given as “significantly reduced the amount of 7SK associated with the affinity-purified CDK9-Flag”, the HIV-1 transcription (HIV-1 transcription) is given as “enhances HIV-1 transcription to levels similar to those obtained by Tat” and the 7SK/P-TEFb interaction (7SK/P-TEFb interaction [2]) is given as “did not disrupt the 7SK/P-TEFb interaction”.

B1: RNase A: ribonuclease used to degrade the CDK9-Flag-associated 7SK (protein, UniProt P61823 27-150, looked up)
Ribonuclease pancreatic: KETAAAKFERQHMDSSTSAASSSNYCNQMMKSRNLTKDRCKPVNTFVHESLADVQAVCSQKNVACKNGQTNCYQSYSTMSITDCRETGSSKYPNCAYKTTQANKHIIVACEGNPYVPVHFDASV
For B1, the “increase of kinase activity of CDK9-Flag (autophosphorylation and phosphorylation of Pol II)” value (CDK9/cyclin T1 kinase) was 3-4 fold.
